In patent US6340754B1, “Phosphorus containing cyclic nucleotides” (priority 1998, dated 2002):

Experiments:
[1] = test system: cell free culture supernatant (fraction A) of Serratia marcescens, cyclic nucleotide phosphodiesterase activity; assay: Activity assay, fraction A: cell free culture supernatant, HPLC detection of substrate and products; type: biochemical, Serratia marcescens strain DSM 30121; details: 40 μl of 100 mM substrate in 400 μl, overnight at 30° C.
Procedure: (§1) The substrates used for enzyme activity assays are dissolved in phosphate buffer pH 7.0 to the required concentration.
One single colony is subsequently used to inoculate 25 ml of LB Broth contained in a 100-ml shake-flask. This culture is then incubated at 30° C. and shaken at 200 rpm (Infors HT Shaker, Infors AG, Bottmingen, Switzerland) for another 48 hrs.
(§2) After incubation, the whole volume of the culture is centrifuged at 9000 rpm for 20 minutes at ca. 4° C. (DuPont Instruments Sorvall® RC-5B Refrigerated Superspeed Centrifuge, Digitana AG, Horgen, Switzerland; rotor SS-34).
The supernatant (fraction A) is recuperated and 360 μl are placed in an Eppendorf tube. Fourty μl of a 100 mM solution of substrate are then added to the reaction mixture and incubated overnight at 30° C.
After 5 minutes of extraction at room temperature, the tubes are centrifugated at 14 000 rpm for 5 minutes (Bench Centrifuge Biofuge 15) and the supernatant transfered to HPLC tubes for analysis.
Blanks are made with the substrate solution being replaced by an equivalent volume of phosphate buffer pH 7.0.
The activity is qualitatively determined by observing the appearance of the substrate and product(s) of the activity assay as peaks on a HPLC profile. […] A peak showing on the assay's chromatogramme at the same or at a very close retention time as that of a standard, and moreover absent from the blank, is considered to be the same compound as the standard with a minimum risk of error.
The solvent system is composed of 10 mm phosphate buffer, pH 4.0 (solvent A) and Methanol (solvent B) and two different gradients are applied depending on whether natural or modified nucleotides are used for the assay:
The HPLC profiles obtained for the activity assays are compared with profiles of standards in order to identify the peaks.

[2] = test system: Intact cells (fraction B) of Serratia marcescens; assay: Activity assay, fraction B: whole-cell suspension, HPLC detection of substrate and products; type: cell-based, Serratia marcescens strain DSM 30121; details: 10 mM substrate solution, overnight at 30° C.
Procedure: as §1
Serratia marcescens strain DSM 30121 is grown for 48 hrs in Petri dishes containing Luria-Bertani [LB] Agar (1% Tryptone [Merck 07213]; 0.5% Yeast Extract [Fluka 70161]; 86 mM NaCl [Fluka 71382]; 50 mM Tris-HCl, pH 7.5 [Merck 8382]; 1.5% Bacto-Agar [Difco 0140-01]) at 30° C. (Memmert Incubator, Haska AG, Bern, Switzerland). One single colony is subsequently used to inoculate 25 ml of LB Broth contained in a 100-ml shake-flask. This culture is then incubated at 30° C. and shaken at 200 rpm (Infors HT Shaker, Infors AG, Bottmingen, Switzerland) for another 48 hrs.
as §2
The pellet is resuspended in 1 ml of distilled water and 40 μl of this whole-cell suspension (fraction B) are placed in an Eppendorf tube to which 360 μl of a 10 mM solution of the substrate are added. The incubation conditions are the same as for the supernatant fraction. […]
The activity is qualitatively determined by observing the appearance of the substrate and product(s) of the activity assay as peaks on a HPLC profile. […]

Compound	hydrolysis / degradation of substrate [1]	degradation of added substrate [2]
COCCO[C@@H]1[C@@H]2OP(=O)(O)OC[C@H]2O[C@H]1n1cnc2c(N)ncnc21 [2′MOE CAMP, 2′-O(2-Methoxyethyl)-adenosine 3′,5′-cyclic-phosphate]	about 50%	about 85%
Nc1ccn([C@@H]2O[C@@H]3COP(=O)(O)O[C@H]3[C@H]2O)c(=O)n1 [cCMP]	ca. 10%	
O=c1[nH]cnc2c1ncn2[C@@H]1O[C@@H]2COP(=O)(O)O[C@H]2[C@H]1O [cIMP]	85-89%	
